# In EPA's ToxValDB 9.5 (doi:10.2903/j.efsa.2010.1445):
# Legend:
# [1] = chronic/long-term; development
# [2] = system: Bibionidae
# [3] = system: Anatidae; conditions: for LD50: oral, mortality
# [4] = system: Apis mellifera; conditions: acute; duration: 48 hours; dermal; mortality
# [5] = system: Typhlodromus pyri; conditions: not reported; mortality
# [6] = system: Daphnia magna; conditions: chronic/long-term; duration: 21 days
# [7] = system: Lepomis macrochirus; conditions: acute; duration: 96 hours; mortality
# [8] = system: Rattus norvegicus; conditions: acute; oral; mortality
# [9] = system: Pimephales promelas; conditions: chronic/long-term; duration: 33 days
# [10] = system: Coturnix coturnix; conditions: for LD50: acute, oral, mortality
# [11] = system: Oncorhynchus mykiss; conditions: acute; duration: 96 hours; mortality
# [12] = system: Tagia sp.; conditions: acute; mortality
# [13] = system: Oryctolagus sp.; conditions: developmental; development
compound,measurement,setting,value
N#CCNC(=O)c1cnccc1C(F)(F)F [Flonicamid],NOEL,[1],25 mg/kg-day
same,LC50,"[2]; acute, duration: 48 hours, mortality",> 200 µg/mL
same,NOEC,"[2]; chronic/long-term, duration: 28 days",25 mg/L
same,LD50,"[3]; acute, unspecified, F",1590 mg/kg
same,LD50,"[3]; acute, unspecified, M",2620 mg/kg
same,NOEL,[3]; reproductive,59 mg/kg-day
same,LD50,"[3]; short-term, feed",> 302 mg/kg-day
same,LD50,[4],> 51.1 µg/piece
same,LEL,[5],80 g/ha
same,NOEC,[6],3.1 mg/L
same,LC50,[7],> 100 µg/mL
same,LD50,[8],884 mg/kg
same,NOEC,[9],10 mg/L
same,LD50,[10]; M/F,> 2000 mg/kg
same,LD50,[10]; diet,> 411 mg/kg-day
same,NOEL,[10]; reproduction developmental,90 mg/kg-day
same,LC50,[11],> 100 µg/mL
same,LC50,[12],> 1000 mg/kg
same,NOAEL,[13],2.5 mg/kg-day
